According to ChEMBL document CHEMBL3507680, “University of Dundee, Gates Library screen for HepG2 cell viability”:

Assay: Human HepG2 cell viability assay in 384 well format
Assay type: toxicity, cell-based
Design: dose 125 nL, time 70.5 hour; cytotoxicity at 70.5 h: concentration not given beside the values
Conditions: HepG2 cells, read-out: Inhibition

Row | SMILES | cytotoxicity at 70.5 h [%]
1 | CC(=O)N1CCN(c2cc(C3CN(C)CCO3)nc(C)n2)CC1 (centres undefined) | -11.6
2 | Cc1ccc(C)c(CN(CC(N)=O)C(C)C)c1 | -1.28
3 | Cc1ccc(CN2CCC3(CCCN(C(=O)N(C)C)C3)C2)cc1 (centres undefined) | -6.47
4 | CN(Cc1ccco1)Cc1cncc2c1CCN(c1ncccn1)C2 | 7.69
5 | CC(C)CN(Cc1ccc(-n2cncn2)cc1)Cc1ccccn1 | -10.8
6 | CN(C)CCn1nc(C2CCN(S(=O)(=O)N(C)C)C2)c2cccnc21 (centres undefined) | -3.16
7 | Cc1nn(C2CCS(=O)(=O)C2)c(O)c1Cc1ccccc1Cl (centres undefined) | -18.5
8 | CC(C)NC(=O)CCNC(=O)Nc1ccc(-n2cncn2)c(F)c1 | -11.5
9 | CC(=O)N1CCC2(CC1)c1ncc(-c3ccc(F)cc3)n1CCN2C | -3.18
10 | CCN1C[C@H]2[C@@H](C1)N(S(=O)(=O)c1ccccc1F)CC[C@H]2OC | -3.89
11 | Cn1ccnc1CNc1ccc(F)c(N2CCCS2(=O)=O)c1 | 0.314
12 | CC(C)N[C@@H]1CO[C@H](CNC(=O)c2cccs2)[C@H]1O | 1.83
13 | COCCC(=O)N1CC2(CCN(c3ccccc3)C2)C1 | 3.88
14 | CC(=O)CSc1nnc2n1N=CN(c1cccc(Cl)c1)C2 | -8.9
15 | Cc1cnn(CCNCC(=O)N(C)C(C)c2ccccc2)c1 (centres undefined) | -10.5
16 | O=C(c1nn[nH]c1Nc1ccc(Cl)cc1)N1CCSCC1 | 9.23
17 | COc1ccccc1C1(CNc2nnc(C)c(C)c2C#N)CCOCC1 | -5.67
18 | CS(=O)(=O)CCCNC1(c2ccc(Br)cc2)CCC1 | -5.79
19 | Cc1ccc(-c2nnc(C(C)N3CCn4c(C)nnc4C3)o2)cc1 (centres undefined) | -1.43
20 | CC1CCCN1Cc1cccc(C(=O)Nc2ccc3[nH]c(=O)oc3c2)c1 (centres undefined) | 30.6
21 | CC(C)COCCC(=O)NCCC(=O)N1CCN(c2ccccn2)CC1 | -2.77
22 | CCN(CC)C(=O)c1cc(C2(C)CCN(C(C)=O)CC2)nc(C)n1 | 4.01
23 | CC(C)Cc1cc(C(=O)NCC2CCN(c3ccccc3F)C2)on1 (centres undefined) | -13.6

Row | SMILES | cytotoxicity at 70.5 h [%]
24 | CSc1ccccc1NC(=O)c1ccc(N2CCOCC2)nn1 | -3.96
25 | Clc1ccccc1-c1nc(CNC2CCc3ncnn3C2)cs1 (centres undefined) | -1.51
26 | CCn1cnnc1CNC(=O)C1CCCN(Cc2cccc(F)c2)C1 (centres undefined) | -14.4
27 | CCOc1ncccc1NC(=O)N1CCCN(C(=O)OC)CC1 | -0.675
28 | C1CC(NCc2nnc(C3CC3)o2)CN(Cc2noc(C3CC3)n2)C1 (centres undefined) | -7.51
29 | COc1cc(-c2noc(C(CC(C)C)N3CCCCC3=O)n2)ccn1 (centres undefined) | -2.9
30 | CC(=O)c1cnc(N(C)Cc2cnc3ccccc3n2)nc1C | -5.98
31 | CCCN(Cc1cccnc1)C(=O)C1CCCN(C)C1 (centres undefined) | 2.68
32 | O=C1CC2(CCCCC2)CC(=O)N1CC(O)COCc1ccc(Cl)cc1 (centres undefined) | -6.34
33 | Brc1ccc2[nH]c3c(c2c1)CCCC3c1nn[nH]n1 (centres undefined) | -14.8
34 | CC(=O)N1CCCC(c2nc(N(C)C)ncc2-c2cccc(F)c2)C1 (centres undefined) | 3.21
35 | Cn1c(CN2CCN(CC3CC3)CC2)nnc1C1CCC1 | 20.3
36 | COCCn1ccc(NC(=O)Nc2ccccc2)n1 | -2.83
37 | Nc1ccc(C(=O)N2CCCC(c3nccn3Cc3cscn3)C2)cn1 (centres undefined) | -3.06
38 | COc1cccc(CN2C[C@@H]3COC[C@]3(COCc3ccccn3)C2)c1 | 2.25
39 | c1cc(C2CCN(c3cnccn3)CC2)ncn1 | 1.96
40 | Cc1cnccc1-n1nc(C(C)C)nc1CCc1cnccn1 | -19.8
41 | Cc1ccc(N(CCC#N)C(=O)CN2CCCC2c2ccsc2)cc1C (centres undefined) | 0.542
42 | CCNC(=O)c1cnc(Cc2ccc(F)cc2)s1 | -6.25
43 | CC(C)Nc1ccc(-c2ccnc3c2ccn3C)nn1 | 15.5
44 | CCN(Cc1cnn(CC)c1)C(=O)Cn1c(=O)c(C)nc2ccccc21 | -17.7
45 | CCCNC(=O)Cn1cc(OC)c(=O)cc1CSc1nc(C)cc(C)n1 | -13.1
46 | CN1CCN(Cc2c(-c3ccco3)[nH]c3ncccc23)CC1 | -6.17

Row | SMILES | cytotoxicity at 70.5 h [%]
47 | O=C(c1[nH]c2ccc(Cl)cc2c1Cl)N1CCC2(CC1)OCCO2 | -0.999
48 | CS(=O)(=O)CCNC(=O)NCCc1cc2ccccc2o1 | -4.01
49 | Cc1cc(C)n(C2CCCN(C(=O)c3cn4cccnc4n3)C2)n1 (centres undefined) | -6.47
50 | CNc1cncc(C2CCCN2C(=O)c2ccc3c(c2)OCCO3)n1 (centres undefined) | 20.5
51 | CCC[C@H]1CN(CCS(C)(=O)=O)C[C@@H]1NC(=O)Cn1cc(C)cn1 | -6.99
52 | COc1ncccc1CNC(=O)c1cccnc1O | -8.53
53 | CC(c1nc(C2CC2)no1)N1CCN(CCCN2CCCC2=O)CC1 (centres undefined) | 3.52
54 | CC(C)Nc1ncc(CN2C[C@@H](CN3CCC(O)CC3)[C@@H](CO)C2)cn1 | -3.95
55 | O=C(NC[C@]12COC[C@H]1CN(Cc1nccs1)C2)N1CCCC1 | -13.4
56 | O=C(c1ccc(Cl)o1)N1CCCC1c1nnc2n1CCCCC2 (centres undefined) | 1.9
57 | CC(C)CS(=O)(=O)NC(=O)c1ccc2c(c1)ncn2C | -4.45
58 | COc1ccccc1NC(=O)NC(C)c1nc[nH]n1 (centres undefined) | 0.321
59 | CC(C)CNC(=O)CN1CCCC(c2ccc(C(=O)O)cc2)C1 (centres undefined) | -6.21
60 | Cc1noc(C(C)N2CCN(CCOCC(F)(F)F)CC2)n1 (centres undefined) | 27.9
61 | CCOc1ccccc1CN1CCc2nc3ccsc3c(=O)n2CC1 | -7.1
62 | Cc1cc(CC(C)NC(=O)c2n[nH]c3c2CCC3)n[nH]1 (centres undefined) | 3.59
63 | COCCCC1(CO)CCCN(CCc2ccccn2)C1 (centres undefined) | 0.702
64 | Cc1csc(CN2C[C@@H]3COC[C@]3(C(=O)NCc3ccco3)C2)n1 | 14.6
65 | COc1ccc(NC(=O)c2nc(C)sc2C)cn1 | 28
66 | CC(OCC1CC1)C(=O)N1CCCN(Cc2nccn2C(C)C)CC1 (centres undefined) | -5.25
67 | Cn1nc(N2CCCC(C(=O)Nc3nc4ccccc4[nH]3)C2)ccc1=O (centres undefined) | -10
68 | CNc1cc(CNC(=O)c2ccccc2)nc(-c2ccncc2)n1 | 11.4
69 | CCn1cc(CNC2CCN(c3c(F)cccc3F)C2)cn1 (centres undefined) | -0.658

Row | SMILES | cytotoxicity at 70.5 h [%]
70 | CC(C)c1cc(NCC(C)N2CCCC2)n2nccc2n1 (centres undefined) | -10.1
71 | CC(C)NC(=O)[C@@H]1C[C@@H]2CCN(Cc3ccoc3)C[C@H]2O1 | 0.151
72 | COc1cc(C(=O)N2CCC3(CC2)Nc2ccccc2NC3=O)ccn1 | 19
73 | CCCN(CC)Cn1ncc2cn(-c3ccccc3)nc2c1=O | -2.92
74 | CC(C)N(C)S(=O)(=O)N(C)Cc1cnn(C)c1 | -3.87
75 | COCC(O)CN(C)C(=O)NCc1ccc(-c2ccn[nH]2)cc1 (centres undefined) | -85.9
76 | c1coc(CN2CCC3(CCOCC3COCC3CC3)CC2)c1 (centres undefined) | 2.33
77 | c1cnc(N2CCO[C@H]3CN(CC4CCOC4)C[C@H]32)cn1 (some centres undefined) | -2.13
78 | CCCc1n[nH]c(C2CN(CCCOc3ccccc3)CCO2)n1 (centres undefined) | -6.69
79 | O=C(Cc1ccccc1)N1C[C@@H]2OCCN(CC3CCCO3)[C@@H]2C1 (some centres undefined) | -6.14
80 | CC(NC(=O)c1cccs1)C(=O)NS(=O)(=O)c1cccc(C#N)c1 (centres undefined) | 2.5
81 | c1ccc(CN2CCC(CCNc3ncnc4c3CCNCC4)C2)cc1 (centres undefined) | -2.61
82 | COCCN1C[C@H]2CN(Cc3cccc(OC(F)(F)F)c3)CCN2C1=O | -7.08
83 | CN(Cc1cnn(C)c1)C(=O)C1COCC(=O)N1Cc1ccccc1 (centres undefined) | -4.96
84 | Cc1ccc(C(=O)NC(CN2CCCC2=O)c2ccccc2)c(=O)[nH]1 (centres undefined) | 17.4
85 | CC1(C(=O)Nc2ccc(F)c(-n3cccc3)c2)CCOCC1 | -6.66
86 | Cc1nonc1CNC(=O)C(C)Oc1ccccc1F (centres undefined) | -7.96
87 | COc1coc(CN2CCCC(CCc3c(F)cccc3F)C2)cc1=O (centres undefined) | -2.32
88 | O=C(NC1CC1)NC(c1ccc(F)cc1)C1CC1 (centres undefined) | -7.03
89 | CC1CN(Cc2ccc(-n3cccn3)cc2)CCO1 (centres undefined) | 0.696
90 | CCOCCNC(=O)c1cccc(Cn2nc(C)cc2C)c1 | -7.21
91 | CCN(CCNS(=O)(=O)C1CCOCC1)C(=O)OC(C)(C)C | -5.67
92 | Cc1c(C(=O)N2CCCSCC2)nnn1-c1ccccc1Cl | -8.81

Row | SMILES | cytotoxicity at 70.5 h [%]
93 | CCCn1nc(C)c(CNC(=O)C2COc3ccc(OC)cc3C2)c1C (centres undefined) | -2.92
94 | COc1ccc(CN2CCC=C(C(C)NC(C)=O)C2)cc1 (centres undefined) | -10.1
95 | CCC(Nc1cccc(Oc2ccccn2)c1)C(N)=O (centres undefined) | -7.08
96 | Cc1nn(-c2ccccc2)c(C)c1CNC(=O)NC1CC(=O)N(C)C1 (centres undefined) | -1.18
97 | CCc1noc(C)c1C(=O)NCc1ccccn1 | -0.245
98 | CCN1CC2(CC1=O)CN(Cc1cnn(C)c1)CCN(C(=O)N(C)C)C2 (centres undefined) | 9.62
99 | CCc1nc(CN2CCN(C(=O)CCc3ccccc3)CC2)cs1 | 3
100 | CCS(=O)(=O)CC(=O)Nc1c(C)cnn1Cc1cc(F)ccc1F | 25.7
101 | CCN1CCCc2cc(-c3cncn3C(C)CN3CCOCC3)ccc21 (centres undefined) | -4.04
102 | CC(C)c1nc(S(=O)(=O)Nc2ccnn2C2CCCC2)c[nH]1 | 1.34
103 | COCCN1CCN(C(=O)c2ccc(C)cc2OC)[C@H]2CS(=O)(=O)C[C@H]21 | -11.7
104 | CSCC(CCO)NC(=O)c1cccc(Cl)c1F (centres undefined) | -16.7
105 | CN(c1ccccc1C(=O)O)S(=O)(=O)c1cccc2cccnc12 | -6.45
106 | CS(=O)(=O)CCN1CCC(=Cc2ccccc2)CC1 | -3.57
107 | O=C(CSc1ccccc1)N1CCC(N2CCCCC2=O)CC1 | 19
108 | Cc1nc(C)n(C2CCCN(C(=O)c3cccnc3NC(C)C)C2)n1 (centres undefined) | -9.03
109 | CCS(=O)(=O)N1Cc2c(Cn3ccnc3)nn(C(C)C)c2C1 | 10.4
110 | Cc1nc(-c2cccnc2)ncc1C(=O)N1CCCCC(N)C1 (centres undefined) | -23.9
111 | CCN(CC)S(=O)(=O)CCNC(=O)c1cc2cccc(F)c2o1 | -1.2
112 | c1ccc(-c2nnc3ccc(N4CCC5(CCOC5)C4)nn23)cc1 (centres undefined) | 5.72
113 | CN1CCc2nnc(C3CCCN3S(=O)(=O)c3ccc(F)cc3)n2CC1 (centres undefined) | -3.97
114 | O=C1CO[C@@H]2CN(CC3CCOC3)C[C@H]2N1Cc1cccc(F)c1 (some centres undefined) | -6.08
